According to ChEMBL document CHEMBL1201862, “PubChem BioAssay data set” (2004):
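96-well plates; 48 h exposure; 5 concentrations. Endpoints by linear interpolation between flanking doses. Not reached: highest tested concentration assigned. GI50 = concentration required for 50% inhibition of growth.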 Activity calls are given as the source filed them. Cut-off read from the data, not from the text of the source: active = GI50 up to about 1.1 µM and inactive = higher.

How the values were obtained:
Test in all cases: NCI-60 cell line screen, 48 h
SK-MEL-5 = tested on: SK-MEL-5
A498 = tested on: A498
SN12C = tested on: SN12C
MOLT-4 = tested on: MOLT-4
LOX IMVI = tested on: LOX IMVI
NCI-H522 = tested on: NCI-H522
UO-31 = tested on: UO-31
Hs-578T = tested on: Hs-578T
NCI-H23 = tested on: NCI-H23
HCT-15 = tested on: HCT-15
TK-10 = tested on: TK-10
SNB-19 = tested on: SNB-19
HOP-62 = tested on: HOP-62
SK-MEL-2 = tested on: SK-MEL-2
HCC 2998 = tested on: HCC 2998
HT-29 = tested on: HT-29
SNB-75 = tested on: SNB-75
NCI-H226 = tested on: NCI-H226
PC-3 = tested on: PC-3
SK-OV-3 = tested on: SK-OV-3

| Structure (SMILES) | GI50 (SK-MEL-5) | GI50 (A498) | GI50 (SN12C) | GI50 (MOLT-4) | GI50 (LOX IMVI) | GI50 (NCI-H522) | GI50 (UO-31) | GI50 (Hs-578T) | GI50 (NCI-H23) | GI50 (HCT-15) [µM] | GI50 (TK-10) | GI50 (SNB-19) | GI50 (HOP-62) | GI50 (SK-MEL-2) | GI50 (HCC 2998) | GI50 (HT-29) | GI50 (SNB-75) | GI50 (NCI-H226) | GI50 (PC-3) | GI50 (SK-OV-3) |
| --- | --- | --- | --- | --- | --- | --- | --- | --- | --- | --- | --- | --- | --- | --- | --- | --- | --- | --- | --- | --- |
| O=c1[nH]nc(Cc2ccccc2)[nH]1 | > 100 µM (inactive) | > 100 µM (inactive) | > 100 µM (inactive) | > 100 µM (inactive) | > 100 µM (inactive) | > 100 µM (inactive) | > 100 µM (inactive) | > 100 µM (inactive) | > 100 µM (inactive) | > 100 | > 100 µM (inactive) | > 100 µM (inactive) | > 100 µM (inactive) | > 100 µM (inactive) | > 100 µM (inactive) | > 100 µM (inactive) | > 100 µM (inactive) | > 100 µM (inactive) | > 100 µM (inactive) | – |
| COc1cc2c(c3c1c(=O)c1ccccc1n3C)C=CC1(CCCC1)O2 | 12.9 µM (inactive) | 18 µM (inactive) | 19.1 µM (inactive) | 26.2 µM (inactive) | 1.02 µM (active) | 16.3 µM (inactive) | – | 2.61 µM (inactive) | 12.9 µM (inactive) | 14.1 | 15.6 µM (inactive) | 18.5 µM (inactive) | 12.8 µM (inactive) | 14 µM (inactive) | 21.8 µM (inactive) | 7.05 µM (inactive) | 11.8 µM (inactive) | 16 µM (inactive) | > 10 µM (inactive) | 21.6 µM (inactive) |
| CCOC(=O)c1c(-c2ccc(Br)cc2)ccn1C | > 10 µM (inactive) | > 10 µM (inactive) | > 10 µM (inactive) | > 10 µM (inactive) | > 10 µM (inactive) | > 10 µM (inactive) | – | > 10 µM (inactive) | > 10 µM (inactive) | > 10 | > 10 µM (inactive) | > 10 µM (inactive) | > 10 µM (inactive) | > 10 µM (inactive) | > 10 µM (inactive) | > 10 µM (inactive) | > 10 µM (inactive) | > 10 µM (inactive) | > 10 µM (inactive) | > 10 µM (inactive) |
| CC(C)=C1C(=O)C[C@]2(C)C[C@H]3/C(=C(/C)CCC12)CC[C@@]3(C)O (some centres not stated) | 40.4 µM (inactive) | > 50 µM (inactive) | > 50 µM (inactive) | 14.9 µM (inactive) | > 50 µM (inactive) | 29 µM (inactive) | > 50 µM (inactive) | > 50 µM (inactive) | > 50 µM (inactive) | 40.1 | > 50 µM (inactive) | > 50 µM (inactive) | > 50 µM (inactive) | > 50 µM (inactive) | > 50 µM (inactive) | > 50 µM (inactive) | 19.1 µM (inactive) | > 50 µM (inactive) | 30.7 µM (inactive) | > 50 µM (inactive) |
| C=CCOCn1ccc(NC(=O)c2ccccc2)nc1=O | > 100 µM (inactive) | > 100 µM (inactive) | > 100 µM (inactive) | > 100 µM (inactive) | > 100 µM (inactive) | > 100 µM (inactive) | > 100 µM (inactive) | > 100 µM (inactive) | > 100 µM (inactive) | > 100 | > 100 µM (inactive) | > 100 µM (inactive) | > 100 µM (inactive) | – | > 100 µM (inactive) | > 100 µM (inactive) | > 100 µM (inactive) | > 100 µM (inactive) | > 100 µM (inactive) | > 100 µM (inactive) |
| O=[N+]([O-])c1cccc(-c2ncnc(-c3cccc([N+](=O)[O-])c3)n2)c1 | > 100 µM (inactive) | 23.9 µM (inactive) | > 100 µM (inactive) | > 100 µM (inactive) | > 100 µM (inactive) | 38.5 µM (inactive) | > 100 µM (inactive) | 51.2 µM (inactive) | 58.5 µM (inactive) | – | 44.5 µM (inactive) | – | 17.8 µM (inactive) | 51.5 µM (inactive) | > 100 µM (inactive) | > 100 µM (inactive) | 26.7 µM (inactive) | > 100 µM (inactive) | > 100 µM (inactive) | 27.1 µM (inactive) |
| CC1(COS(=O)(=O)OCC2(C)COS(=O)(=O)OC2)COS(=O)(=O)OC1 | > 69.2 µM (inactive) | > 45.8 µM (inactive) | – | – | > 40.5 µM (inactive) | > 61.1 µM (inactive) | > 41.2 µM (inactive) | > 100 µM (inactive) | > 25.8 µM (inactive) | > 35.7 | > 74.8 µM (inactive) | > 60.7 µM (inactive) | 62.2 µM (inactive) | > 55.6 µM (inactive) | > 60.7 µM (inactive) | > 32.6 µM (inactive) | > 100 µM (inactive) | > 41.5 µM (inactive) | > 29.6 µM (inactive) | > 100 µM (inactive) |
| CC1(C)[C@@H]2CC[C@]1(C)[C@H](OC(=O)CSC#N)C2 | > 100 µM (inactive) | > 100 µM (inactive) | > 100 µM (inactive) | – | 35.2 µM (inactive) | 43.9 µM (inactive) | 39.1 µM (inactive) | > 100 µM (inactive) | > 100 µM (inactive) | > 100 | > 100 µM (inactive) | > 100 µM (inactive) | > 100 µM (inactive) | > 100 µM (inactive) | > 100 µM (inactive) | > 100 µM (inactive) | > 100 µM (inactive) | > 100 µM (inactive) | > 100 µM (inactive) | > 100 µM (inactive) |
| O=C1c2ccccc2C(=O)c2c(NCCCN3CCOCC3)ccc(NCCCN3CCOCC3)c21 | 2.51 µM (inactive) | 12 µM (inactive) | 2.18 µM (inactive) | 1.09 µM (active) | 1.54 µM (inactive) | 0.67 µM (active) | 3.01 µM (inactive) | 5.45 µM (inactive) | < 0.01 µM (active) | 2.55 | 12.9 µM (inactive) | 5.3 µM (inactive) | 2.12 µM (inactive) | 8.24 µM (inactive) | 2.86 µM (inactive) | 1.14 µM (inactive) | 2.29 µM (inactive) | 6.59 µM (inactive) | 2.61 µM (inactive) | – |
| COc1ccc(N2C(=O)C(C#N)=C(SC)C(C#N)C2=O)cc1 (configuration not stated) | > 100 µM (inactive) | > 100 µM (inactive) | > 100 µM (inactive) | > 100 µM (inactive) | > 100 µM (inactive) | > 100 µM (inactive) | – | 22.8 µM (inactive) | – | > 100 | > 100 µM (inactive) | 66.5 µM (inactive) | > 100 µM (inactive) | > 100 µM (inactive) | > 100 µM (inactive) | > 100 µM (inactive) | 47.1 µM (inactive) | > 100 µM (inactive) | > 100 µM (inactive) | > 100 µM (inactive) |
| C=C(CC[C@@H](C(=O)O)[C@H]1[C@H](O)C[C@@]2(C)C3=CC[C@@H](C(=C)C)[C@](C)(CCC(=O)O)C3=CC[C@]12C)C(C)C [PORICOIC ACID A] | 20.4 µM (inactive) | 23.6 µM (inactive) | 16.7 µM (inactive) | 22.1 µM (inactive) | 19.3 µM (inactive) | 20.4 µM (inactive) | 17.2 µM (inactive) | 22.6 µM (inactive) | 16.9 µM (inactive) | 17.2 | 17.8 µM (inactive) | 17.7 µM (inactive) | – | 18.5 µM (inactive) | 17.9 µM (inactive) | 17.6 µM (inactive) | 20.4 µM (inactive) | 19.7 µM (inactive) | 18.7 µM (inactive) | 18 µM (inactive) |
